# Read-outs that look alike come from different tables or passages of the source.
# Columns and labels:
# [1] = Suppression of anxiety (punished licking, conflict test) in the adult male rat; type: in vivo, male rats
# Protocol: The anxiolytic activity of selected compounds of the invention was assessed by determining their ability to release (disinhibit) behavior that had been suppressed by punishment (Vogel, J. R. et al. Psychopharmacology 1971, 21, 1). Male rats were deprived of water for 48 hours and were deprived of food for 24 hours prior to testing. After the first 24 hours of water deprivation, they were placed in the conflict chamber for a training period; wherein, they were allowed 200 unpunished licks from a bottle containing tap water. The experiment was run the next day. At the expected time of peak activity, the animals were placed in the chamber and allowed access to tap water. […] Their first lick initiates a 3-min test session. Subsequently,every 20th lick was punished by a 0.2-s shock delivered via the stainless-steel drinking-tube. Vehicle-treated control animals generally were willing to accept a median number of 3 to 8 shocks per test session. […] The Wilcoxon rank-sum test (Mann-WhitneyU-test) was used to test for an increase (p<0.05, 1-tailed) in the median number of shocks in drug-treated groups, compared to a concurrently run vehicle-treated group. The biological assay is considered to be valid if the effects of a known anxiolytic (positive control) are detected, within the same experiment. A compound was considered active if there is a significant difference in the median number of shocks tolerated between the drug-treated group and the control group. The MED was defined as the minimum dose of the drug-treatment as analyzed using the Wilcoxon rank-sum test (SAS; Statistical Analysis System, version 5.16). If the MED value is greater than 10, an active dose of the compound being tested had not been determined.
# [2] = Suppression of metrazol-induced convulsions; type: in vivo, male CD1 mice; conditions: mice; for ED50: Mus musculus, 0.5 h
# Protocol: Selected compounds of the invention were tested for their ability to reduce metrazol-induced convulsions in mice (Swinyard, E. A. J. Am. Pharm Assoc. 1949, 38, 201). Male CD1 mice, were fasted at least 16 hours, were divided into equal groups and test compounds or vehicle were administered parenterally. Water was not withheld except during the period of observations. At the time of suspected peak activity, anti-pentylenetetrazol (anti-metrazol) activity was evaluated by the subcutaneous administration of the CD90 dose of metrazol (the dose of metrazol was determined from the dose-response curve producing clonic convulsions in 90% of animals that received the corresponding vehicle for this experiment). Metrazol was dissolved in 0.9% sodium chloride solution, and its dose volume was 10 ml/kg. Animals were housed individually for observation of clonic convulsions, tonic convulsions and death for a period of 30 min. Test compounds that blocked the clonic seizure component of the convulsion in at least 50% of the animals were considered active. The biological assay was considered to be valid if the effects of a known anticonvulsant (positive control) were detected, within the same experiment. Activity was reported as percent reduction of clonic convulsions from the vehicle group. The ED50 values of active compounds were calculated by the method of probits (Finney, D. J. 1971. Probit Analysis. London: Cambridge University Press) and are listed in Tables 1 to 5.
# [3] = molecular target: benzodiazepine site of the GABA-A receptor; experiment: Benzodiazepine Receptor Binding Assay (inhibition of 3H-flunitrazepam binding); conditions: ca. 3 nM 3H-flunitrazepam
# [4] = Table 1, ip, minimum effective dose, >10 = active dose not determined, read-out: Conflict (ip) MED
# [5] = Table 1, ip, clonic convulsions after sc CD90 metrazol, >30 = active dose not determined, read-out: Metrazol (ip) ED50
# [6] = Table 1, 25° C., 10-20 min, >10,000 = not active
# [7] = Table 2, ip, clonic convulsions, read-out: Antimetrazol (ip) ED50
# [8] = Table 4, minimum effective dose, read-out: Conflict MED
# [9] = Table 4, parenteral, clonic convulsions, read-out: Antimetrazol ED50
# [10] = Table 5, minimum effective dose, read-out: Conflict MED
# [11] = Table 5, parenteral, clonic convulsions, read-out: Antimetrazol ED50
Compound,"minimal effective dose [1, 4]","ED50 [2, 5]","IC50 [3, 6]",also measured
O=C1CCN2C(=C1C(=O)Nc1ccc3[nH]ncc3c1)Nc1ccccc12 [compound 50],10 mg/kg,> 10 mg/kg,96 nM,–
CC(C)NC(=O)C1=C2Nc3ccccc3N2CCC1=O [compound 105],> 10 mg/kg,> 10 mg/kg,46 nM,–
CN(C)c1cccc(NC(=O)C2=C3Nc4ccccc4N3CCC2=O)c1 [compound 34],> 10 mg/kg,4 mg/kg,37 nM,–
O=C1CCN2C(=C1C(=O)Nc1ccc(F)cc1F)Nc1ccccc12 [compound 92],> 10 mg/kg,1 mg/kg,10 nM,–
O=C1CCN2C(=C1C(=O)Nc1ncc(C(F)(F)F)cc1C(F)(F)F)Nc1ccccc12 [compound 78],10 mg/kg,> 10 mg/kg,> 10000 nM,–
O=C1CCN2C(=C1C(=S)Nc1ccccc1)Nc1ccccc12 [compound 117],–,–,–,"minimal effective dose ([1]; Table 2, ip, minimum effective dose, read-out: Conflict (ip) MED): > 10 mg/kg; ED50 [2, 7]: > 10 mg/kg; IC50 ([3]; Table 2): 360 nM"
CN(C)CCc1ccc(NC(=O)C2=C3Nc4ccccc4N3CCC2=O)cc1 [compound 115],30 mg/kg,> 30 mg/kg,110 nM,–
O=C1CCN2C(=C1C(=O)Nc1c(F)cc(F)cc1F)Nc1cc(Cl)ccc12 [compound 104],10 mg/kg,1 mg/kg,13 nM,–
O=C1CCN2C(=C1C(=O)Nc1ccc3c(c1)CCN3)Nc1ccccc12 [compound 33],10 mg/kg,> 30 mg/kg,54 nM,–
O=C(Nc1ccccc1F)c1c(=O)ccn2c1[nH]c1ccccc12 [compound 139],–,–,–,"minimal effective dose [1, 8]: 0.1 mg/kg; ED50 [2, 9]: 0.3 mg/kg; IC50 ([3]; Table 4): 0.23 nM"
O=C1CCN2C(=C1C(=O)Nc1nncs1)Nc1ccccc12 [compound 69],> 10 mg/kg,> 10 mg/kg,300 nM,–
O=C1CCN2C(=C1C(=O)Nc1c(F)c(F)nc(F)c1F)Nc1ccccc12 [compound 55],> 10 mg/kg,> 10 mg/kg,350 nM,–
O=C1CCN2C(=C1C(=O)Nc1ccccc1)Nc1cc(C(F)(F)F)ccc12 [compound 16],–,–,960 nM,–
O=C(Nc1ccccc1)c1c(=O)ccn2c1[nH]c1ccccc12 [compound 138],–,–,–,"minimal effective dose [1, 8]: 1 to 10 mg/kg; ED50 [2, 9]: 0.5 mg/kg; IC50 ([3]; Table 4): 24 nM"
O=C1CCN2C(=C1C(=O)Nc1c(Cl)cccc1Cl)Nc1cc(F)ccc12 [compound 112],–,–,100 nM,–
COc1ccc2c(c1)NC1=C(C(=O)Nc3ccncc3)C(=O)CCN12 [compound 57],> 10 mg/kg,> 10 mg/kg,500 nM,–
O=C1CCN2C(=C1C(=O)Nc1ncccn1)Nc1ccccc12 [compound 46],10 mg/kg,3 mg/kg,54 nM,–
O=C1CCN2C(=C1C(=O)Nc1ccc(Br)cc1)Nc1ccccc12 [compound 44],> 10 mg/kg,3 mg/kg,130 nM,–
O=C1CCN2C(=C1C(=O)Nc1nnc(C(F)(F)F)s1)Nc1ccccc12 [compound 74],> 10 mg/kg,10 mg/kg,10000 nM,–
O=C1CCN2C(=C1C(=O)Nc1cccc3cnccc13)Nc1ccccc12 [compound 65],> 10 mg/kg,10 mg/kg,770 nM,–
CN(C)c1ccc(NC(=O)C2=C3N(C)c4ccccc4N3CCCC2=O)cc1 [compound 150],–,–,–,"minimal effective dose [1, 10]: > 10 mg/kg; ED50 [2, 11]: > 10 mg/kg; IC50 ([3]; Table 5): 3100 nM"
O=C1CCN2C(=C1C(=O)Nc1ccc3cn[nH]c3c1)Nc1ccccc12 [compound 48],10 mg/kg,> 30 mg/kg,350 nM,–
O=C1CCN2C(=C1C(=O)Nc1c(Cl)cc(Cl)cc1Cl)Nc1ccccc12 [compound 101],> 10 mg/kg,> 10 mg/kg,–,–

Compound,"minimal effective dose [1, 4]","ED50 [2, 5]","IC50 [3, 6]",also measured
Nc1ccccc1NC(=O)C1=C2Nc3ccccc3N2CCC1=O [compound 47],10 mg/kg,3 mg/kg,50 nM,–
Cc1cc(NC(=O)C2=C3Nc4ccccc4N3CCC2=O)on1 [compound 68],> 10 mg/kg,> 10 mg/kg,54 nM,–
O=C1CCN2C(=C1C(=O)Nc1c(F)cccc1F)Nc1ccccc12 [compound 36],0.1 mg/kg,1 mg/kg,2.8 nM,–
O=C1CCN2C(=C1C(=O)NCc1ccccc1)Nc1ccccc12 [compound 32],> 10 mg/kg,> 30 mg/kg,38 nM,–
O=C1CCN2C(=C1C(=O)Nc1ccc3[nH]ccc3c1)Nc1ccccc12 [compound 30],> 10 mg/kg,> 30 mg/kg,530 nM,–
O=C1CCN2C(=C1C(=O)Nc1ccccc1)Nc1cc(Cl)ccc12 [compound 81],10 mg/kg,> 10 mg/kg,66 nM,–
O=C1CCN2C(=C1C(=O)Nc1ccc(F)cc1)Nc1ccccc12 [compound 45],10 mg/kg,> 30 mg/kg,430 nM,–
O=C1CCN2C(=C1C(=O)Nc1ccc3ncsc3c1)Nc1ccccc12 [compound 72],< 10 mg/kg,> 10 mg/kg,10000 nM,–
CC1CN2C(=C(C(=O)Nc3ccccc3F)C1=O)N(C)c1ccccc12 (stereo not shown) [compound 132],–,–,–,"minimal effective dose ([1]; Table 3, minimum effective dose, read-out: Conflict MED): < 10 mg/kg; ED50 ([2]; Table 3, parenteral, clonic convulsions, read-out: Antimetrazol ED50): 1 mg/kg"
CSc1cnccc1NC(=O)C1=C2Nc3ccccc3N2CCC1=O [compound 66],10 mg/kg,10 mg/kg,3300 nM,–
O=C1CCN2C(=C1C(=O)Nc1cccnc1F)Nc1ccccc12 [compound 116],> 10 mg/kg,2 mg/kg,–,–
O=C1CCN2C(=C1C(=O)Nc1ccccc1F)Nc1cc(F)ccc12 [compound 108],10 mg/kg,< 1 mg/kg,2 nM,–
"N-(4-Pyridyl)-1,2-dihydro-3-hydroxypyrido-(1,2-a)benzimidazole-4-carboxamide [CP 35]",–,–,9.1 nM,"Conflict (ip) MED ([1]; Table 1, ip, minimum effective dose, >10 = active dose not determined): 10 mg/kg; Metrazol (ip) ED50 ([2]; Table 1, ip, clonic convulsions after sc CD90 metrazol, >30 = active dose not determined, 30 min): 3 mg/kg"
CSc1ccccc1NC(=O)C1=C2Nc3ccccc3N2CCC1=O [compound 40],> 10 mg/kg,> 10 mg/kg,720 nM,–
O=C1CCN2C(=C1C(=O)Nc1ccnc(Cl)c1)Nc1ccccc12 [compound 52],> 10 mg/kg,> 10 mg/kg,1400 nM,–
O=C1CCCN2C(=C1C(=O)Nc1ccccc1)N(Cc1ccccc1)c1ccccc12 [compound 145],–,–,–,"minimal effective dose [1, 10]: > 10 mg/kg; ED50 [2, 11]: > 10 mg/kg; IC50 ([3]; Table 5): 420 nM"
O=C1CCN2C(=C1C(=O)Nc1ccc(F)cc1F)Nc1cc(F)ccc12 [compound 111],–,–,3.3 nM,–
O=C1CCN2C(=C1C(=O)Nc1c(Cl)c(F)nc(F)c1Cl)Nc1ccccc12 [compound 67],10 mg/kg,10 mg/kg,10000 nM,–
O=C1CCN2C(=C1C(=O)Oc1ccccc1)Nc1ccccc12 [compound 118],–,–,–,"ED50 [2, 7]: 3 mg/kg; IC50 ([3]; Table 2): 200 nM"
O=C1CCCN2C(=C1C(=O)Nc1ccncc1)N(Cc1ccccc1)c1ccccc12 [compound 154],–,–,–,"ED50 [2, 11]: > 10 mg/kg; IC50 ([3]; Table 5): 6700 nM"
O=C1CCN2C(=C1C(=O)Nc1ccncc1F)Nc1cc(F)ccc12 [compound 110],–,–,12 nM,–
CN(C)c1ccc(NC(=O)C2=C3Nc4ccccc4N3CCC2=O)c(F)c1 [compound 86],–,1 mg/kg,120 nM,–
